One compound from PMC9369419 (International Journal of Molecular Sciences, 2022) can be followed below.

The Ki is the dissociation constant of the complex between target and ligand, obtained from inhibition or displacement. What is called IC50 is the concentration at which inhibition is half-maximal.

One assay concerns the target T1, GluK1 (Rattus norvegicus, UniProt P22756).
T1 construct: made in house; host or cells: Sf9 insect cells (membranes)
The experiment in a line: Radioligand binding at recombinant homomeric GluK1 in Sf9 membranes. The conditions noted are these: recombinant rat homomeric receptor, [3H]-(S)-NF608, mean ± SEM. The protocol: Ligand binding affinities at recombinant rat homomeric GluA2, GluK1−3, and GluK5 were determined as previously detailed. […] The filters were dried at 70 °C for 1 h, and 50 μL/well Microscint 20 (PerkinElmer, Waltham, MA, USA) was added. Radioactivity was detected with a TopCounter (PerkinElmer, Waltham, MA, USA). GluA2 and GluK5 assays were filtered on GF/C type filters using Millipore 12-well filtration manifolds (Merck Life Science, Søborg, Denmark) and washed twice with ice-cold assay buffer. Filters were placed in pony vials (PerkinElmer, Waltham, MA, USA), 3 mL of Ultima Gold scintillation fluid (PerkinElmer, Waltham, MA, USA) was added, and DPM (disintegrations per minute) were determined using a TriCarb 2900 scintillation counter (PerkinElmer, Waltham, MA, USA).
All competition curves (n ≥ 3 per ligand) were determined in triplicate. Data were analyzed using GraphPad Prism 6 (GraphPad Software, San Diego, CA, USA) to determine ligand affinity (Ki) and Hill coefficient (nH) using the one-site Ki and four-parameter logistics equations, respectively.

For a further assay, the target named is T2, GluK3a (Rattus norvegicus, UniProt P42264).
T2 construct: expressed in transfected cells
T2 sequence (P42264 32-919): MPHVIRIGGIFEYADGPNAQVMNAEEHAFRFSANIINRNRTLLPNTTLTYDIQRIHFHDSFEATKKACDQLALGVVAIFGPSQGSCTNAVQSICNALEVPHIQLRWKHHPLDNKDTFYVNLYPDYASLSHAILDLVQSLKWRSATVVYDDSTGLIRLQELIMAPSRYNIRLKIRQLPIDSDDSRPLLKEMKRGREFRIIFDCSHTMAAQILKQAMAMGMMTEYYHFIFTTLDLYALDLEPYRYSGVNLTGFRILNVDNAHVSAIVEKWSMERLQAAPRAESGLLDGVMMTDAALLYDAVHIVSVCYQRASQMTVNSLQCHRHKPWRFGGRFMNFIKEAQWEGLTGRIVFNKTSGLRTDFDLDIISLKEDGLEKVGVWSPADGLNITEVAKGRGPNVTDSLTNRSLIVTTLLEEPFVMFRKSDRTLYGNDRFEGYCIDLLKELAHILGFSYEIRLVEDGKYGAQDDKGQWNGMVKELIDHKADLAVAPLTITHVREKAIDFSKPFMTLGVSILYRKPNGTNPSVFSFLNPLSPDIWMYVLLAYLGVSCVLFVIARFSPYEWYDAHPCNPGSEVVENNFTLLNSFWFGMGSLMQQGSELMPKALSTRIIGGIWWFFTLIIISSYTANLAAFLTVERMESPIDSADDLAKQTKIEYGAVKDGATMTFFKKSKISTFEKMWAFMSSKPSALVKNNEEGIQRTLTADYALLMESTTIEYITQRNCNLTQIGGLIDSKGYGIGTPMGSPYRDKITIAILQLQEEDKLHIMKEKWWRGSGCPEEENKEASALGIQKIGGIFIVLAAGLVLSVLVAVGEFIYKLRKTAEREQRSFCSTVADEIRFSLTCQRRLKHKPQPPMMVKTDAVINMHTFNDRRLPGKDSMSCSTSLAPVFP
The experiment in a line: Intracellular Ca2+ imaging assay, HEK293 cells expressing GluK3a. It counts as cell-based. The text has this:
For the determination of antagonistic activity of compounds at GluK1, GluK3 and GluA2 receptors, stable HEK293 cell lines expressing rat GluK1b(Q), GluK3a, and GluA2(Q)i were created. A polyclonal stable cell line expressing GluK3a was created as described previously. For the creation of polyclonal stable cell lines expressing GluK1and GluA2 receptors, cDNA encoding blasticidin-S deaminase (blas) enzymes were inserted into the pIRES plasmid vector (Clontech, Mountain View, CA, USA) to create the plasmid vector pRES(blas). Subsequently, cDNA for rat GluK1(Q)1b and the flip isoform of rat GluA2(Q)i were inserted into pRES(blas) to create the expression constructs GluK1b(Q)pIRES(blas) and GluA2i(Q)pIRES(blas), respectively. These were used to transfect GripTite^TM HEK293 cells followed by selecting with 20 µg/mL blasticidin (Invivogen, Toulouse, France) and 0.50 mg/mL geneticin in the presence of 20 µM of the AMPA receptor antagonist CNQX (Tocris, Bristol, UK) until stably transfected GluK1b(Q) and GluA2(Q)i cell lines were obtained. For functional assays, cells were plated into clear-bottomed, black 96-well fluorescence culture plates (Corning, Vordingborg, Denmark), and when >70% confluent, the cells were loaded with 2 μM Fluo 4-AM calcium sensitive dye (Abcam, Cambridge, UK) and used for the imaging of agonist-evoked changes in intracellular Ca^2+ using a FlexStation I plate reader (Molecular Devices, San Jose, CA, USA). […] Changes in dye fluorescence in response to the addition of an agonist solution were then measured at 538 nm using excitation at 485 nm and emission cut-off at 515 nm. Baseline fluorescence was measured for 16 s before the addition of 50 µL agonist solution to each well of the assay plate, and fluorescence was measured for 120 to 160 s after addition of the agonists. Peak change in fluorescence was calculated as the difference between the maximal observed increase in fluorescence and pre-agonist baseline fluorescence. The agonist solutions contained 100 µM KA together with 300 µM of the KAR positive allosteric modulator BPAM344 (Sigma-Aldrich Chemical, St. Louis, MO, USA) for GluK1 and GluK3 experiments or 100 µM glutamate together with 100 µM of the AMPAR positive allosteric modulator cyclothiazide for GluA2 experiments (HelloBio, Bristol, UK). Responses were determined in at least triplicate at each compound concentration.

In a further assay the test system is mGluR2. The experiment in a line: mGluR2 functional assay (Ca2+/Fluo-4, mGlu2/Gqo5-HEK293 cells). It is filed as cell-based. The conditions noted are these: 0.1 mM compound. As for the experimental part:
Culture media, serum, antibiotics and buffers for cell culture were obtained from Invitrogen (Paisley, UK). The Fluo-4/AM dye was obtained from Molecular Probes (Eugene, OR, USA), and Glu was purchased from Sigma-Aldrich. The construction and basic pharmacological characterization of the stable mGlu2/Gqo5-HEK293 cell line has been described previously.
Cell culture and Ca^2+/Fluo-4 Assay. The mGlu2/Gqo5-HEK293 cells were cultured in Dulbecco’s Modified Eagle Medium-Glutamax-I supplemented with 100 U/mL penicillin, 100 µg/mL streptomycin, 5% dialyzed fetal bovine serum, 100 µg/mL zeocin and 1 mg/mL G418. The cells were split into poly-D-lysine-coated black 96-well plates with clear bottoms (6 × 10^4 cells/well). The following day, the culture medium was aspirated, and the cells were incubated in 50 µL assay buffer (Hanks Buffered Salt Solution containing 20 mM HEPES, 1 mM CaCl2, 1 mM MgCl2 and 2.5 mM probenecid, pH 7.4) supplemented with […] Fluo–4/AM at 37 °C for 1 h. […] The 96-well plate was assayed in a FLEXStation (Molecular Devices, Crawley, UK) measuring emission (in fluorescence units (FU)) at 525 nm caused by excitation at 485 nm before and up to 90 s after the addition of 33.3 µL agonist-containing assay buffer. […]

SMILES strings stand for the structures.

T1 sequence (P22756 31-949): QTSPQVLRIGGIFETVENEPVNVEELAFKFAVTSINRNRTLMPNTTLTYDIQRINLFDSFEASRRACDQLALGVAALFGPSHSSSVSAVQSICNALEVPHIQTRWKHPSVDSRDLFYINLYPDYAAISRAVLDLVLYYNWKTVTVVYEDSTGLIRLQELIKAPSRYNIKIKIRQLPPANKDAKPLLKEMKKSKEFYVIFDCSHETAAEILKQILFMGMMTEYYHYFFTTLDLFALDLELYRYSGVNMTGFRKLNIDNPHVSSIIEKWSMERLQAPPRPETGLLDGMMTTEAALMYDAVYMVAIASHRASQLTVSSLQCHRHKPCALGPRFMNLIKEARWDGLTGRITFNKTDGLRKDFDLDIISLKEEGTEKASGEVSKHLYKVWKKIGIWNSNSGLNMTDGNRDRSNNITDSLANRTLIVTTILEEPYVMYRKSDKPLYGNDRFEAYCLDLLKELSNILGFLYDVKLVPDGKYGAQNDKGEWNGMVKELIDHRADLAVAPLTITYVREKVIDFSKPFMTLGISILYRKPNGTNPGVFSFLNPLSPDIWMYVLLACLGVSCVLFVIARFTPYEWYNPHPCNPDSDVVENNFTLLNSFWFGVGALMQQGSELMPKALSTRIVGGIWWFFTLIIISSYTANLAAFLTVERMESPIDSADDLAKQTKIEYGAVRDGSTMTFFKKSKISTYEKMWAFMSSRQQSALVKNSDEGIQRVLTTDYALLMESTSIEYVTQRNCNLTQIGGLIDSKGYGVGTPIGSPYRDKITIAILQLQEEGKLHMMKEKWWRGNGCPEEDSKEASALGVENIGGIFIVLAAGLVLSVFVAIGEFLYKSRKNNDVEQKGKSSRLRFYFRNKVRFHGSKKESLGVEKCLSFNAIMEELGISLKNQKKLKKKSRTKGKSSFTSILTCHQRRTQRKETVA

Consider `O=C(Nn1c(=O)c(=O)[nH]c2cc(C#Cc3cnc4cccnn34)ccc21)c1ccccc1` [Compound 28], for which the Ki at GluK1 was about 100 µM. Further, the “inhibition of agonist-evoked responses at GluK3” value at GluK3a (10 µM compound, Ca2+ fluorescence) is reported as “full inhibition”. Besides, on GluK3a (100 µM KA + 300 µM BPAM344, Ca2+ fluorescence, read-out: IC50, antagonism of agonist-evoked responses at GluK3), the IC50 turned out to be 3.6 µM. The “agonist or antagonist activity at mGluR2” value with mGluR2 was “neither agonistic nor antagonistic”.
